In the OligoGym collection:
Several values for one entry are separate records, joined by “and”; a condition that tells them apart may be missing. Equal values may be shown once. After the bases stand the sugars from the 5' end (letter, count) and the backbone: PS all phosphorothioate, else s phosphorothioate and o phosphodiester by linkage. Methylation of C is not given here. e = 2'-O-(2-methoxyethyl) (MOE); k = constrained ethyl (cEt); d = 2'-deoxy (DNA)

Biological target: IRF4
Details: ASO

| Sequence | target mRNA inhibition (MM.1R, 1 µM) | target mRNA inhibition (SK-MEL-28, 4 µM) | further results |
| --- | --- | --- | --- |
| CTACTCTTCAGGCACC (sugars k3 d10 k3, PS) | 18% |  |  |
| CACGAAGGGCAGTGCC (sugars k3 d10 k3, PS) |  | 17% |  |
| TACTTAGACATTACTA (sugars k3 d10 k3, PS) |  | 39% |  |
| ACACACCACTATTCGA (sugars k3 d10 k3, PS) |  | 35% |  |
| AGTGTCTAAAGTCCCA (sugars k3 d10 k3, PS) | 42% and 58% |  | target mRNA inhibition (MM.1R, 0.0625 µM): 15%; target mRNA inhibition (MM.1R, 0.25 µM): 34%; target mRNA inhibition (MM.1R, 4 µM): 75% |
| GACGACAGCTGCGGAG (sugars k3 d10 k3, PS) |  | 45% |  |
| AATGGAGATACTTGTA (sugars k3 d10 k3, PS) | 26% |  |  |
| TTTTTCCATATGACCC (sugars k3 d10 k3, PS) |  | 75% |  |
| GAAGCACTGGCATTGA (sugars k3 d10 k3, PS) |  | 55% |  |
| CAAGCAGTGATGTCAG (sugars kddddddddddkekek, PS) | 35% and 43% |  |  |
| CTATAGTGTTCCAGGA (sugars kkkddddddddkekek, PS) | 23% |  |  |
| CTTCATCAGACTAAGT (sugars k3 d10 k3, PS) |  | 31% |  |
| CAAGGCTACAGGCACG (sugars k3 d10 k3, PS) |  | 51% |  |
| CAGCTCACCGCGCTCA (sugars k3 d10 k3, PS) |  | 42% |  |
| CAAAAGTACCACAGGG (sugars k3 d10 k3, PS) |  | 40% |  |
| ACTATTAAGAACTTGC (sugars k3 d10 k3, PS) |  | 21% |  |
| AAGGGTTACGCTTATT (sugars k3 d10 k3, PS) |  | 52% |  |
| CGTAATACAAATAAAG (sugars k3 d10 k3, PS) |  | 3% |  |
| TTATGTTAGCCAATTC (sugars kdddddddddkekeke, PS) | 9% and 2% |  |  |
| GGCACAAGCATAAAAG (sugars k3 d10 k3, PS) |  | 1% |  |
| CTGAGTTACCGCATTG (sugars k3 d10 k3, PS) | 49% and 54% |  |  |
| TCCTGAGACAAGTGCT (sugars k3 d10 k3, PS) |  | 55% |  |
| GGAAAGAGGCACCCTC (sugars k3 d10 k3, PS) |  | 28% |  |
| GAAGCATTTTATCATC (sugars kkdddddddddkekek, PS) | -20% |  |  |
| TCAGACTGTGCTGCTC (sugars k3 d10 k3, PS) |  | 36% |  |

| Sequence | target mRNA inhibition (MM.1R, 1 µM) | target mRNA inhibition (SK-MEL-28, 4 µM) | further results |
| --- | --- | --- | --- |
| ACCAAATTCCCGGAGG (sugars k3 d10 k3, PS) |  | 7% |  |
| GTGCACTCGCGCAAAG (sugars k3 d10 k3, PS) | -5% |  |  |
| TGCTATTAAACTGATT (sugars k3 d10 k3, PS) | -3% |  |  |
| CAGAAGTACGAGCACA (sugars k3 d10 k3, PS) |  | 47% |  |
| CAATAGTCTAGCTGGG (sugars k3 d10 k3, PS) |  | 63% |  |
| GAAGCATTTTATCATC (sugars kkkddddddddkekek, PS) | -5% |  |  |
| ATACTGGTTGGTTGGC (sugars k3 d10 k3, PS) | 69% and 75% |  | target mRNA inhibition (KMS11, 0.2 µM): 74% and 76%; target mRNA inhibition (MM.1R, 0.0625 µM): 51%; target mRNA inhibition (MM.1R, 0.25 µM): 61%; target mRNA inhibition (MM.1R, 4 µM): 86% |
| TTGGACAGAAGGGCAA (sugars k3 d10 k3, PS) |  | 29% |  |
| ACCTCAGTTTGTGAAG (sugars kkkddddddddkekek, PS) | -3% |  |  |
| AAATAGCATCAGAGCT (sugars k3 d10 k3, PS) |  | 13% |  |
| TAGGAAGTTTACTAAC (sugars k3 d10 k3, PS) |  | 36% |  |
| TGGCACCAAAAGTACC (sugars k3 d10 k3, PS) |  | 34% |  |
| CGCGCAAGTCTACAGC (sugars k3 d10 k3, PS) | 13% |  |  |
| AGTACGAGCACATGTC (sugars k3 d10 k3, PS) |  | 34% |  |
| TCTACTGGAGTCAAGC (sugars k3 d10 k3, PS) | 30% |  |  |
| CAGCACCGTGTGGAAA (sugars k3 d10 k3, PS) |  | 51% |  |
| GTTGGCTGGTCTTTGT (sugars kkddddddddddkeke, PS) | 25% |  |  |
| CTGGAACATTGTTGGA (sugars k3 d10 k3, PS) |  | 46% |  |
| TCTAGTTTGCCAATTC (sugars k3 d10 k3, PS) |  | 62% |  |
| CCTGAGACAAGTGCTA (sugars k3 d10 k3, PS) |  | 43% |  |
| TGTGCAAAACCAGTAC (sugars k3 d10 k3, PS) | -20% |  |  |
| AGTTGTAAATGAGTCG (sugars kkkdddddddddkeke, PS) | 77% |  | target mRNA inhibition (MM.1R, 0.074 µM): 29%; target mRNA inhibition (MM.1R, 0.222 µM): 58%; target mRNA inhibition (MM.1R, 0.666 µM): 76%; target mRNA inhibition (MM.1R, 2 µM): 90% |
| ACGAGGTTGCCGAGAT (sugars k3 d10 k3, PS) | 62% and 41% |  | target mRNA inhibition (MM.1R, 0.0625 µM): -16%; target mRNA inhibition (MM.1R, 0.25 µM): 7%; target mRNA inhibition (MM.1R, 4 µM): 78% |
| TGCAAACGACAAGTGG (sugars k3 d10 k3, PS) |  | 21% |  |
| GGCGGATAGATCTGTG (sugars k3 d10 k3, PS) |  | 51% |  |

| Sequence | target mRNA inhibition (MM.1R, 1 µM) | target mRNA inhibition (SK-MEL-28, 4 µM) | further results |
| --- | --- | --- | --- |
| CACGAGGAAGCATAGA (sugars k3 d10 k3, PS) |  | 56% |  |
| CATCCAAGAGTAGCGC (sugars k3 d10 k3, PS) |  | 73% and 63% |  |
| AATGTTCAGCTTTTCC (sugars k3 d10 k3, PS) |  | 63% |  |
| GACATAAAGGACCCCG (sugars k3 d10 k3, PS) | 8% |  |  |
| GAGGTTCGCTGAATTG (sugars k3 d10 k3, PS) |  | 30% |  |
| ATGGCGAGTTGGCACA (sugars k3 d10 k3, PS) | 49% and 48% |  |  |
| ATTTATAACCGGTAGA (sugars k3 d10 k3, PS) | 28% |  |  |
| AGCCAGAGCAGTAAAC (sugars k3 d10 k3, PS) |  | 15% |  |
| ATGGCAGTCTACAGAA (sugars k3 d10 k3, PS) |  | -2% |  |
| CAGAAAATATGTAACG (sugars k3 d10 k3, PS) |  | 22% |  |
| CCAGTACAGTCCACTC (sugars k3 d10 k3, PS) | -6% |  |  |
| TCCTCAAAGTCATTGC (sugars k3 d10 k3, PS) |  | 32% |  |
| GAAATACGACAACTTT (sugars k3 d10 k3, PS) |  | 22% |  |
| TCAGAGCTAGAACATG (sugars k3 d10 k3, PS) |  | 38% |  |
| TGATAGCTGAGCTGAT (sugars k2 d9 e3 k2, PS) | -2% |  |  |
| GAACAATCCTGTACAC (sugars k4 d8 k4, PS) |  | 0% |  |
| TTGGTACGGGATTTCC (sugars k3 d10 k3, PS) | 34% |  |  |
| GGCACATCAATGTTTT (sugars kkdddddddddkdkdk, PS) | 26% and 16% |  |  |
| CCGAAAAGACTGGAGT (sugars k3 d10 k3, PS) |  | 57% |  |
| GGAGAATTAAGAAGAC (sugars k3 d10 k3, PS) |  | 32% |  |
| AATAAAGACCTTAACC (sugars k3 d10 k3, PS) |  | 11% |  |
| GAGGACCTCGCCTGCG (sugars k3 d10 k3, PS) |  | -2% |  |
| GAGATATTAATTACTG (sugars k3 d10 k3, PS) |  | 63% |  |
| CGTGAAACAGCAGTTC (sugars k3 d10 k3, PS) |  | 40% |  |
| CACCGAACACACCAGG (sugars k3 d10 k3, PS) |  | 20% |  |
